Test system: HeLa viability, CellTiter-Glo ATP luminescence, 8-48 h
Test: HeLa cell viability over time, late-stage follow-up, mechanism study for HRAS target identification, CellTiter-Glo ATP luminescence, 8-48 h, dry powder (AID 720609)

COC(=O)c1ccc([C@@H]2c3[nH]c4ccccc4c3C[C@@H](C(=O)OC)N2C(=O)CCl)cc1
AC50 (measured here: AC50 at 8 h): 512 nM
AC50 (measured here: AC50 at 24 h): 609 nM
AC50 (measured here: AC50 at 48 h): 602 nM

C#CCCCC(=O)NCCOCCOCCOc1ccc(N(C(=O)CCl)C(C(=O)NCCc2ccccc2)c2cccs2)cc1Cl (stereo not drawn)
AC50 (measured here: AC50 at 8 h): 6100 nM
AC50 (measured here: AC50 at 24 h): 3100 nM
AC50 (measured here: AC50 at 48 h): 4790 nM

CC(C)(C)OC(=O)NCCOCCOCCOc1ccc(N(C(=O)CCl)C(C(=O)NCCc2ccccc2)c2cccs2)cc1Cl (stereo not drawn)
AC50 (measured here: AC50 at 8 h): 515 nM
AC50 (measured here: AC50 at 24 h): 564 nM
AC50 (measured here: AC50 at 48 h): 946 nM

CCC(=O)N(c1ccc(OC)c(Cl)c1)C(C(=O)NCCc1ccccc1)c1cccs1 (stereo not drawn)
AC50 (measured here: AC50 at 24 h): > 70000 nM

COc1ccc(N(C(=O)CCl)C(C(=O)NCCc2ccccc2)c2cccs2)cc1Cl (stereo not drawn)
AC50 (measured here: AC50 at 8 h): 725 nM
AC50 (measured here: AC50 at 24 h): 323 nM
AC50 (measured here: AC50 at 48 h): 699 nM

Reference: PubChem BioAssay AID720609 (Broad Institute, 2013)
